From patent US11738037B2, “Agent for preventing or improving decline in brain function” (KYOWA HAKKO BIO CO., LTD., priority 2012, dated 2023)

Legend:
Format in all cases: in vivo, C57BL/6J mice
[1] = system: bilateral common carotid arteries occlusion mice; experiment: Y-maze test (spontaneous alternation behavior); settings: oral, after 7 days of administration, FIG. 1
Description: (§1) Experimental Example: 10-week-old male C57BL/6J mice (CLEA Japan, Inc. approximately 25 g of average body weight per mouse) were preliminarily acclimated for 1 week, and provided for experiments. L-citrulline and citicoline were obtained from KYOWA HAKKO BIO CO., LTD.
(§2) C57BL/6J mice were divided into a sham-operation group (Group 1) and a bilateral common carotid arteries occlusion group, which was performed under halothane anesthesia for 20 minutes. One day after reperfusion, the bilateral common carotid arteries occlusion group was further divided into a distilled water-treated group (Group 2), a low-dose L-citrulline-treated group (40 mg/kg: Group 3), a low-dose citicoline-treated group (40 mg/kg: Group 4), a high-dose L-citrulline-treated group (100 mg/kg: Group 5), a high-dose citicoline-treated group (100 mg/kg: Group 6), and a combination treatment group of a low dose of L-citrulline and a low dose of citicoline (each 40 mg/kg: Group 7). Each sample was orally administered for 12 days. […] After evaluating learning memory functions, the hippocampus was removed and viability of hippocampal nerve cells was evaluated.
In the Y-maze test, a Y-maze apparatus with three arms (50×16×32 cm) was used. […] The sequence of arm entries was recorded. The number of entries into each arm was counted during the measurement time, which was defined as the total number of entries. […]

[2] = system: bilateral common carotid arteries occlusion mice; experiment: Passive avoidance test; settings: oral, after 7 days of administration, compared to Group 2, FIG. 2
Description: as §1
(§3) C57BL/6J mice were divided into a sham-operation group (Group 1) and a bilateral common carotid arteries occlusion group, which was performed under halothane anesthesia for 20 minutes. […] After evaluating learning memory functions, the hippocampus was removed and viability of hippocampal nerve cells was evaluated.
The passive avoidance test was performed using a box consisting of dark (25×25×25 cm) and light compartments (14×10×25 cm) and being equipped with an electrical stimulation apparatus at the bottom of the dark compartment. […] Twenty four hours after training, the mouse was placed again in the light compartment, and the latency time spent in the light compartment was recorded with a maximum latency of 300 seconds.

[3] = system: hippocampal nerve cells (CA1 pyramidal cell layer); experiment: Evaluation of viability of hippocampal nerve cells; settings: oral for 12 days, compared to Group 2, FIG. 4
Description: as §1, §3
Twelve days after bilateral occlusion of the common carotid arteries, mice were anesthetized with pentobarbital sodium, and perfused with ice-cold phosphate buffer (PBS, pH 7.4) until the blood in the body was completely removed. […] Surviving and non-surviving nerve cells in the CA1 pyramidal cell layer of the hippocampus were counted at 1.4 to 1.8 mm posterior to bregma, and cells with PI-positive nuclei and typical morphological characteristics were defined as surviving nerve cells. The cell viability was calculated from a ratio to the average number of surviving nerve cells in Group 1.

[4] = system: bilateral common carotid arteries occlusion mice; experiment: Novel object recognition test; settings: oral, after 7 days of administration, novel vs familiar object, FIG. 3
Description: as §1
as §2, with “7).” for “7). Each sample was orally administered for 12 days.”
The novel object recognition test was performed after mice were individually acclimated to the open field apparatus (35×25×35 cm) for 2 days. […] A ratio of the frequency of exploring the familiar or novel object over the total exploration frequency was calculated, and used as an index for visual recognition memory.

## NC(=O)NCCC[C@H](N)C(=O)O [L-citrulline]
[1]; high dose 100 mg/kg, compared to Group 2
  spontaneous alternation behavior rate (Alternation): improved effect of memory behavior
[1]; low dose 40 mg/kg, compared to distilled water-treated occlusion group (Group 2)
  spontaneous alternation behavior rate (Alternation): Alternation cannot be improved
[2]; high dose 100 mg/kg
  time spent in the light compartment (Latency time): improved effect of memory behavior
[2]; low dose 40 mg/kg
  time spent in the light compartment (Latency time): latency time cannot be improved
[3]; high dose 100 mg/kg
  viability of hippocampal nerve cells: nerve cell-protecting effect
[3]; low dose 40 mg/kg
  viability of hippocampal nerve cells: viability of hippocampal nerve cells cannot be improved
[4]; high dose 100 mg/kg
  frequency of exploring the novel object: remarkably improved effect of memory behavior
[4]; low dose 40 mg/kg
  frequency of exploring the novel object: frequency of exploring the novel object cannot be increased
